Experimental data from patent US10144705B2 (Commissariat a l'energie atomique et aux energies …, priority 2012, dated 2018).

Columns and labels:
[1] = cited from earlier work
[2] = test system: in-vitro cell-based BBB model (coculture of glial cells and brain endothelial cells); format: in vitro ADME
Experimental: The in-vitro cell-based BBB model which is used to assess the permeability of fatty esters consists in a coculture of glial cells and brain endothelial cells. A transport buffer (150 mM NaCl, 5.2 mM KCl, 2.2 mM CaCl2, 0.2 mM MgCl2, 6 mM NaHCO3, 2.8 mM glucose and 5 mM Hepes) is added: 1500 μl to the basolateral chamber (which represents the cerebral parenchyma) and 500 μl to the apical chamber (which represents the blood). The fatty esters are introduced in the apical compartment. After 60 min, aliquots are removed from the apical and basolateral chambers for drug-concentration determination. The percentage of drug from the initial dosage that crossed BBB is calculated as follows: P (%)=[(Bf×1500)/(A0×500)]×100 where Bf is the amount of tested compounds in the basolateral compartment at the end point. A0 is the initial amount in the apical compartment at time point 0.

Row | permeability through the blood brain barrier [2] | translocation within brain endothelial cells or in the basal compartment [2] | Structure (SMILES) | oral bioavailability [1]
1 |  |  | CN(CC(=O)O)C(=N)N [creatine, 2-1(methylguanidino) acetic acid] | low
2 | not | no translocation | CCOC(=O)CN(C)C(=N)N [C2] | 
